Test results as given in US20050120397A1, “Compounds and methods for regulation of spermatid differentiation” (priority 2003, published 2005).
Entries after “also recorded” stand apart in the source; their conditions may differ. Residues, ends and D or L forms follow the SMILES beside them. *: point of attachment. Cbz = O=C(OCc1ccccc1)*; CH2F = FC*

T1: drICE (Drosophila melanogaster, UniProt O01382)
T1 sequence (O01382 29-217 limits assumed): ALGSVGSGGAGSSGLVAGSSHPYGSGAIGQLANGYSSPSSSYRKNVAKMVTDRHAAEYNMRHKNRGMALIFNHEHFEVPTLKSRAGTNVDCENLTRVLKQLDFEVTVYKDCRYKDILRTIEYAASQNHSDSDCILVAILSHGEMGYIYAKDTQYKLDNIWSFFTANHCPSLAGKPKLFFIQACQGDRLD
T1 sequence (O01382 231-339 limits assumed): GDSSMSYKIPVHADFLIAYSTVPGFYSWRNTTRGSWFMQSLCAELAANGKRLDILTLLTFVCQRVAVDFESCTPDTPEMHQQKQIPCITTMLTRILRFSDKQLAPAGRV


Assays:
drICE = biological target: T1, drICE; details: cited from earlier work
Drosophila S2 cells = details: cited from earlier work
[1] = test system: spermatid individualization in cultured testes; experiment: Testes cultures with caspase inhibitor (spermatid individualization); assay type: cell-based, Drosophila; details: isolated testes cultured 24-26 hours at 25° C. with 30 mm Z-VAD(OMe)-FMK
Description: At least 20 testes were examined for each experiment described. Testes of young adults were dissected in testis buffer (TB) which consisted of: 10 mM Tris-HCl, pH 6.8, 183 mM KCl, 47 mM NaCl, 1 mM EDTA, and 1 mM PMSF. Dissected testes were transferred to a […] droplet of TB placed on a siliconized coverslip (GOLD SEAL), opened using thin forceps, and sandwiched with a poly-L-lysine-coated slide. The sandwich was frozen in liquid nitrogen, the coverslip was removed with a razor blade, and the slide was placed in ice-cold absolute ethanol. The slides were drained and a hydrophobic ring surrounding the opaque tissue was drawn using a PAP PEN (Zymed Laboratories Inc.). The tissue was fixed in 4% formaldehyde in PBS for 20 minutes, rinsed twice with PBS for 5 minutes, incubated in PBT (PBS+0.1% Triton X-100) for 30 minutes, and rinsed twice again. The fixed testes were then blocked with PBS/BSA (1% BSA in PBS) for 45 minutes, incubated with primary antibody (diluted in PBS/BSA) within the hydrophobic ring overnight at […] inside a humid chamber, and rinsed twice for 5 minutes in PBS. […] Caspase inhibition of IC caudal movement was determined in vitro, using isolated pairs of testes from young adult flies (n=10). […]

[2] = test system: spermatid individualization and male fertility; experiment: Expression of p35 in male gonads (Hsp83-gal4 x UAS-p35): fertility test and cytological analysis; assay type: in vivo, Drosophila
[3] = ectopic expression of p35 in male germ cells

| Molecule | activity of drICE in vitro (drICE) | drICE-induced cell death (Drosophila S2 cells) | IC (individualization complex) translocation ([1]; versus DMSO control) | cystic bulge (CB) morphology / collection of cytoplasm into CBs ([1]; versus DMSO control testis of same individual) | CM1-staining (active drICE) [2, 3] | spermatid individualization / CB and WB morphology in vivo [2, 3] | IC translocation in vivo ([2]; male progeny with Hsp83-gal4 driver and UAS-p35 construct) | male fertility ([2]; male progeny with Hsp83-gal4 driver and UAS-p35 construct, parental lines fertile) |
| --- | --- | --- | --- | --- | --- | --- | --- | --- |
| COC(=O)C[C@H](NC(=O)[C@H](C)NC(=O)[C@@H](NC(=O)OCc1ccccc1)C(C)C)C(=O)CF [Z-VAD, Z-VAD(OMe)-FMK] (Cbz-Val-Ala-Asp(OMe)-CH2F) | blocks the activity of drICE in vitro | blocks | no evidence of IC translocation | advanced CBs that appeared flat; also recorded: flat, irregular CBs | – | – | – | – |
| p35: baculoviral broad-spectrum caspase inhibitor p35, expressed in male gonads via the GAL4/UAS system (protein, UniProt P08160 1-299, looked up) Early 35 kDa protein: MCVIFPVEIDVSQTIIRDCQVDKQTRELVYINKIMNTQLTKPVLMMFNISGPIRSVTRKNNNLRDRIKSKVDEQFDQLERDYSDQMDGFHDSIKYFKDEHYSVSCQNGSVLKSKFAKILKSHDYTDKKSIEAYEKYCLPKLVDERNDYYVAVCVLKPGFENGSNQVLSFEYNPIGNKVIVPFAHEINDTGLYEYDVVAYVDSVQFDGEQFEEFVQSLILPSSFKNSEKVLYYNEASKNKSMIYKALEFTTESSWGKSEKYNWKIFCNGFIYDKKSKVLYVKLHNVTSALNKNVILNTIK | – | – | – | – | failing to block CM1-staining | the cytoplasm failed to collect to form a normal CB; also recorded: blocked individualization; also recorded: scattered IC cones and flat CBs and WBs | IC translocation was severely impaired | sterile |
